Data from US20250042886A1, “BIS(HETERO)ARYL THIOETHER OXADIAZINES AS FUNGICIDAL COMPOUNDS” (Bayer Aktiengesellschaft, priority 2021, published 2025).

Key:
[1] = test system: Botrytis cinerea; assay: Botrytis cinerea in vitro cell test; format: cell-based; settings: 144 h, liquid culture, 6 days incubation, read-out: efficacy (inhibition of fungal growth); for inhibition at 20 ppm: 20 ppm of active ingredient
Method in brief: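 Compounds from DMSO stocks added at a range of concentrations to a defined mineral-salt/sucrose liquid medium inoculated with B. cinerea spores. After 6 days' incubation, mycelium growth was read by absorbance; inhibition of germination and growth was calculated against fungicide-free control wells.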

[2] = test system: Sphaerotheca fuliginea; assay: In vivo preventive test on Sphaerotheca fuliginea (powdery mildew on cucurbits); settings: Podosphaera fuliginea, 192 h; 500 ppm of active ingredient, sprayed on young gherkin plants 24 h before inoculation; evaluated 8 days after inoculation; read-out: efficacy
Method: B-3. […] The active ingredients were made soluble and homogenized in a mixture of Dimethyl sulfoxide/Acetone//Tween® 80 and then diluted in water to the desired concentration. The young plants of gherkin were treated by spraying the active ingredient prepared as described above. Control plants were treated only with an aqueous solution of Acetone/Dimethyl sulfoxide/Tween® 80. After 24 hours, the plants were contaminated by spraying the leaves with an aqueous suspension of Sphaerotheca fuliginea spores.

[3] = test system: Colletotrichum lindemuthianum; assay: In vivo preventive test on Colletotrichum lindemuthianum (leaf spot on bean); settings: 168 h, 500 ppm of active ingredient, sprayed on young bean plants 24 h before inoculation, evaluated 7 days after inoculation, read-out: efficacy
Method in brief: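 Young bean plants sprayed preventively with compound in DMSO/acetone/Tween 80 diluted in water; controls got solvent mix only. After 24 hours, leaves sprayed with an aqueous spore suspension of C. lindemuthianum.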

[4] = test system: Pyricularia oryzae; assay: microbe, parasite or virus in culture; format: cell-based; settings: 120 h; for inhibition at 20 ppm: read-out: efficacy (inhibition of fungal growth), 20 ppm of active ingredient, liquid culture, 5 days incubation
[5] = test system: Botrytis cinerea; assay: In vivo preventive test on Botrytis cinerea (grey mould); settings: 500 ppm of active ingredient, sprayed on young gherkin or cabbage plants 24 h before inoculation, evaluated 4 to 5 days after inoculation, read-out: efficacy
Method in brief: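 Compounds in DMSO/acetone/Tween 80 were diluted in water and sprayed onto young gherkin or cabbage plants; controls got solvent only. After 24 h, leaves were sprayed with an aqueous Botrytis cinerea spore suspension.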

Compound	inhibition at 20 ppm [1] [%]	pest or weed control at 500 ppm [2] [%]	pest or weed control at 500 ppm [3] [%]	inhibition at 20 ppm [4] [%]	pest or weed control at 500 ppm [5] [%]	inhibition at 50 µM ([1]; 50 μMol/l of active ingredient) [%]	inhibition at 50 µM ([4]; read-out: efficacy (inhibition of fungal growth), 50 μMol/l of active ingredient, liquid culture, 5 days incubation) [%]
FC(F)(F)c1cccc(Sc2cnc(Cl)cc2C2=NOC[C@@H](Cc3ccc(Cl)cc3Cl)N2)c1 (racemic) [Compound I-022]	90 to 100	90 to 100	90 to 100	80 to 89	90 to 100	–	–
Cc1cccc(Sc2cnc3ccccc3c2C2=NOC[C@H](Cc3ccc(C)cc3C)N2)c1 (racemic) [Compound I-023]	90 to 100	–	70 to 79	90 to 100	90 to 100	–	–
Cc1ccc(C[C@@H]2CON=C(c3c(Sc4cccc(C(F)(F)F)c4)nnc4ccccc34)N2)c(C)c1 (racemic) [Compound I-029]	90 to 100	–	70 to 79	90 to 100	90 to 100	–	–
Cc1ccc(C[C@H]2CON=C(c3c(Sc4cccc(C(F)(F)F)c4)cnc4ccccc34)N2)c(C)c1 (racemic) [Compound I-030]	90 to 100	–	90 to 100	90 to 100	90 to 100	–	–
Cc1ccc(C[C@@H]2CON=C(c3nc(C)ncc3Sc3cccc(Cl)c3)N2)c(C)c1 (racemic) [Compound I-031]	90 to 100	90 to 100	90 to 100	–	90 to 100	–	–
Cc1cccc(Sc2cnc(C)nc2C2=NOC[C@@H](Cc3ccc(C)cc3C)N2)c1 (racemic) [Compound I-032]	90 to 100	90 to 100	90 to 100	70 to 79	90 to 100	–	–
Cc1ccc(C[C@@H]2CON=C(c3nc(C)ncc3Sc3cccc(Cl)c3)N2)c(Cl)c1 (racemic) [Compound I-033]	90 to 100	90 to 100	90 to 100	–	90 to 100	–	–
Cc1cc([C@@H]2CON=C(c3c(Sc4cccc(Cl)c4)nnc(C)c3C)N2)c(C)s1 (racemic) [Compound I-100]	–	–	90 to 100	–	90 to 100	90 to 100	90 to 100
